Key:
Test in all cases: drug sensitivity score (DSS) from 5-point dose-response viability curve (DSS (area-under-curve based score)); higher = more sensitive (stronger growth inhibition or killing); extreme values may be limits of the assay
Details in all cases: exposure time: 72 h; concentration range: 5 concentrations over 10,000-fold range
CAOV3 = test system: CAOV3
Method in brief: (§1)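 Drug sensitivity scores were calculated in Breeze software for each cell line and drug pair; higher scores indicate more sensitivity. A score of zero indicates no response. The underlying assay used 384-well plates: drugs were placed by an Echo 550 acoustic dispenser at five concentrations spanning a 10,000-fold range, 1,500 ovarian cancer or normal ovarian cells were added per well, and cells were kept 3 days at 37°C, 5% CO2. Viability was then measured with CellTiter-Glo luminescence on a PHERAstar FS.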

COV362 = test system: COV362
Method in brief: as §1

OVCAR5 = test system: OVCAR5
Method in brief: as §1

OVCAR4 = test system: OVCAR4
Method in brief: as §1

HOSE2C = test system: HOSE2C
Method in brief: as §1

OVCAR8 = test system: OVCAR8
Method in brief: as §1

Kuramochi = test system: Kuramochi
Method in brief: as §1

Ovsaho = test system: Ovsaho
Method in brief: as §1

HOSE1C = test system: HOSE1C
Method in brief: as §1

COV318 = test system: COV318
Method in brief: as §1

OV90 = test system: OV90
Method in brief: as §1

JHOS2 = test system: JHOS2
Method in brief: as §1

With `CCNC(=O)c1noc(-c2cc(C(C)C)c(O)cc2O)c1-c1ccc(CN2CCOCC2)cc1` [Luminespib] the drug sensitivity score (CAOV3) was 16.8, the drug sensitivity score (COV362) was 13.8 and the drug sensitivity score (OVCAR5) was 15.2. For the same compound, the drug sensitivity score (OVCAR4) was 9.8, the drug sensitivity score (HOSE2C) was 23 and the drug sensitivity score (OVCAR8) was 18.8. It also gave a drug sensitivity score (Kuramochi) of 14.4, a drug sensitivity score (Ovsaho) of 8.7 and a drug sensitivity score (HOSE1C) of 23.1. For the same compound, the drug sensitivity score (COV318) was 11.6, the drug sensitivity score (OV90) was 17.2 and the drug sensitivity score (JHOS2) was 18.8.
Compound `O=C(O)CC[C@H]1CC[C@@](c2cc(F)ccc2F)(S(=O)(=O)c2ccc(Cl)cc2)CC1` [MK-0752] has a drug sensitivity score (CAOV3) of 0, a drug sensitivity score (COV362) of 0 and a drug sensitivity score (OVCAR5) of 0.9. It also gave a drug sensitivity score (OVCAR4) of 0, a drug sensitivity score (HOSE2C) of 0 and a drug sensitivity score (OVCAR8) of 0. It also gave a drug sensitivity score (Kuramochi) of 0, a drug sensitivity score (Ovsaho) of 0 and a drug sensitivity score (HOSE1C) of 0. The drug sensitivity score (COV318) was 0, the drug sensitivity score (OV90) was 0.2 and the drug sensitivity score (JHOS2) was 0.
`NC1(c2ccc(-c3nc4ccn5c(=O)[nH]nc5c4cc3-c3ccccc3)cc2)CCC1` [MK-2206] gave a drug sensitivity score (CAOV3) of 1.9, a drug sensitivity score (COV362) of 0.4 and a drug sensitivity score (OVCAR5) of 2. It also gave a drug sensitivity score (OVCAR4) of 0.4, a drug sensitivity score (HOSE2C) of 2.6 and a drug sensitivity score (OVCAR8) of 0. The drug sensitivity score (Kuramochi) was 4.4, the drug sensitivity score (Ovsaho) was 2.6 and the drug sensitivity score (HOSE1C) was 2.1. For the same compound, the drug sensitivity score (COV318) was 1.2, the drug sensitivity score (OV90) was 1.9 and the drug sensitivity score (JHOS2) was 0.
`O=C(c1cccc(Cl)c1F)N1CCN(Cc2cccc(Nc3nccs3)n2)CC1` [MK-8745] gave a drug sensitivity score (CAOV3) of 4.9, a drug sensitivity score (COV362) of 0 and a drug sensitivity score (OVCAR5) of 7.8. It also gave a drug sensitivity score (OVCAR4) of 1.1, a drug sensitivity score (HOSE2C) of 3.5 and a drug sensitivity score (OVCAR8) of 8. It also gave a drug sensitivity score (Kuramochi) of 0.4, a drug sensitivity score (Ovsaho) of 0.2 and a drug sensitivity score (HOSE1C) of 2.1. For the same compound, the drug sensitivity score (COV318) was 0, the drug sensitivity score (OV90) was 0.5 and the drug sensitivity score (JHOS2) was 0.
For `Cn1cc(-c2cnn3c(N)c(Br)c([C@@H]4CCCNC4)nc23)cn1` [MK-8776], the drug sensitivity score (CAOV3) was 1.3, the drug sensitivity score (COV362) was 0 and the drug sensitivity score (OVCAR5) was 0.4. For the same compound, the drug sensitivity score (OVCAR4) was 0, the drug sensitivity score (HOSE2C) was 5.1 and the drug sensitivity score (OVCAR8) was 1. It also gave a drug sensitivity score (Kuramochi) of 0, a drug sensitivity score (Ovsaho) of 0 and a drug sensitivity score (HOSE1C) of 5.1. For the same compound, the drug sensitivity score (COV318) was 0, the drug sensitivity score (OV90) was 1.1 and the drug sensitivity score (JHOS2) was 0.
In the case of `Cc1cnc(-c2ccccc2C(C)C)nc1NCc1ccc(-n2ccnn2)cc1` [ML323], the drug sensitivity score (CAOV3) is reported as 0.3, the drug sensitivity score (COV362) is reported as 0 and the drug sensitivity score (OVCAR5) is reported as 0. The drug sensitivity score (OVCAR4) was 1.5, the drug sensitivity score (HOSE2C) was 0 and the drug sensitivity score (OVCAR8) was 0. The drug sensitivity score (Kuramochi) was 0, the drug sensitivity score (Ovsaho) was 0 and the drug sensitivity score (HOSE1C) was 0. The drug sensitivity score (COV318) was 0.1, the drug sensitivity score (OV90) was 0.1 and the drug sensitivity score (JHOS2) was 0.
With `O=C(CCNC(=O)c1ccc(OC(F)(F)F)cc1)N[C@@H]1CCCc2ccccc21` [ML390] the drug sensitivity score (CAOV3) was 0.6, the drug sensitivity score (COV362) was 0 and the drug sensitivity score (OVCAR5) was 2. It also gave a drug sensitivity score (OVCAR4) of 0, a drug sensitivity score (HOSE2C) of 13.4 and a drug sensitivity score (OVCAR8) of 4.9. The drug sensitivity score (Kuramochi) was 5.3, the drug sensitivity score (Ovsaho) was 4.1 and the drug sensitivity score (HOSE1C) was 19.8. For the same compound, the drug sensitivity score (COV318) was 4.1, the drug sensitivity score (OV90) was 5.6 and the drug sensitivity score (JHOS2) was 3.4.
Compound `O=C(Nc1cccc(NC(=O)c2cccc(O)c2O)c1)c1cccc(O)c1O` [MST-312] has a drug sensitivity score (CAOV3) of 6.7, a drug sensitivity score (COV362) of 5.1 and a drug sensitivity score (OVCAR5) of 5. For the same compound, the drug sensitivity score (OVCAR4) was 7.2, the drug sensitivity score (HOSE2C) was 10.5 and the drug sensitivity score (OVCAR8) was 13.9. It also gave a drug sensitivity score (Kuramochi) of 5.5, a drug sensitivity score (Ovsaho) of 9.7 and a drug sensitivity score (HOSE1C) of 11.9. For the same compound, the drug sensitivity score (COV318) was 5.4, the drug sensitivity score (OV90) was 7.6 and the drug sensitivity score (JHOS2) was 9.4.
With `CNC(=O)[C@@H](NC(=O)[C@H](CC(C)C)[C@H](O)C(=O)NO)C(C)(C)C` [Marimastat] the drug sensitivity score (CAOV3) was 1.3, the drug sensitivity score (COV362) was 0 and the drug sensitivity score (OVCAR5) was 1.6. It also gave a drug sensitivity score (OVCAR4) of 0.1, a drug sensitivity score (HOSE2C) of 0 and a drug sensitivity score (OVCAR8) of 0.1. For the same compound, the drug sensitivity score (Kuramochi) was 0, the drug sensitivity score (Ovsaho) was 0 and the drug sensitivity score (HOSE1C) was 0. For the same compound, the drug sensitivity score (COV318) was 0, the drug sensitivity score (OV90) was 0.1 and the drug sensitivity score (JHOS2) was 0.
`Cc1ccc(NC(=O)c2ccc(CN3CCN(C)CC3)cc2)cc1Nc1nc(-c2cccnc2)cs1` [Masitinib] was tested, and the drug sensitivity score (CAOV3) was 0.2, the drug sensitivity score (COV362) was 1.4 and the drug sensitivity score (OVCAR5) was 4.4. The drug sensitivity score (OVCAR4) was 2.1, the drug sensitivity score (HOSE2C) was 1.3 and the drug sensitivity score (OVCAR8) was 4.1. The drug sensitivity score (Kuramochi) was 3.4, the drug sensitivity score (Ovsaho) was 0.8 and the drug sensitivity score (HOSE1C) was 1.8. The drug sensitivity score (COV318) was 1.7, the drug sensitivity score (OV90) was 5.2 and the drug sensitivity score (JHOS2) was 1.7.
`CC(=O)O[C@]1(C(C)=O)CC[C@H]2[C@@H]3C=C(C)C4=CC(=O)CC[C@]4(C)[C@H]3CC[C@@]21C` [Megestrol acetate] gave a drug sensitivity score (CAOV3) of 0, a drug sensitivity score (COV362) of 0 and a drug sensitivity score (OVCAR5) of 0. The drug sensitivity score (OVCAR4) was 0, the drug sensitivity score (HOSE2C) was 0 and the drug sensitivity score (OVCAR8) was 0.4. The drug sensitivity score (Kuramochi) was 0, the drug sensitivity score (Ovsaho) was 0 and the drug sensitivity score (HOSE1C) was 0. The drug sensitivity score (COV318) was 0, the drug sensitivity score (OV90) was 0 and the drug sensitivity score (JHOS2) was 0.
`CCN(CC)CCCC(C)Nc1c2ccc(Cl)cc2nc2ccc(OC)cc12` (stereo not given) [Mepacrine] showed a drug sensitivity score (CAOV3) of 9.4, a drug sensitivity score (COV362) of 10.3 and a drug sensitivity score (OVCAR5) of 13.1. For the same compound, the drug sensitivity score (OVCAR4) was 15.2, the drug sensitivity score (HOSE2C) was 8.2 and the drug sensitivity score (OVCAR8) was 12.1. The drug sensitivity score (Kuramochi) was 13.2, the drug sensitivity score (Ovsaho) was 13.1 and the drug sensitivity score (HOSE1C) was 9.7. It also gave a drug sensitivity score (COV318) of 10.3, a drug sensitivity score (OV90) of 16 and a drug sensitivity score (JHOS2) of 10.5.
For `S=c1[nH]cnc2nc[nH]c12` [Mercaptopurine], the drug sensitivity score (CAOV3) was 12.4, the drug sensitivity score (COV362) was 6.4 and the drug sensitivity score (OVCAR5) was 7.3. For the same compound, the drug sensitivity score (OVCAR4) was 12.3, the drug sensitivity score (HOSE2C) was 0 and the drug sensitivity score (OVCAR8) was 8.6. For the same compound, the drug sensitivity score (Kuramochi) was 7.7, the drug sensitivity score (Ovsaho) was 5.5 and the drug sensitivity score (HOSE1C) was 0. It also gave a drug sensitivity score (COV318) of 0.1, a drug sensitivity score (OV90) of 4.4 and a drug sensitivity score (JHOS2) of 4.1.
For `Cc1ccc(C(=O)Nc2ccc(Oc3cc4cnn(C)c4cc3-c3cn[nH]c3)c(F)c2)c(=O)n1-c1ccc(F)cc1` [Merestinib], the drug sensitivity score (CAOV3) was 0, the drug sensitivity score (COV362) was 0 and the drug sensitivity score (OVCAR5) was 0.9. The drug sensitivity score (OVCAR4) was 0.4, the drug sensitivity score (HOSE2C) was 0 and the drug sensitivity score (OVCAR8) was 0.1. For the same compound, the drug sensitivity score (Kuramochi) was 1.1, the drug sensitivity score (Ovsaho) was 0 and the drug sensitivity score (HOSE1C) was 0. It also gave a drug sensitivity score (COV318) of 0, a drug sensitivity score (OV90) of 0.6 and a drug sensitivity score (JHOS2) of 2.4.
`CN(C)C(=N)NC(=N)N` [Metformin] showed a drug sensitivity score (CAOV3) of 0, a drug sensitivity score (COV362) of 0 and a drug sensitivity score (OVCAR5) of 0. It also gave a drug sensitivity score (OVCAR4) of 0, a drug sensitivity score (HOSE2C) of 0 and a drug sensitivity score (OVCAR8) of 0. It also gave a drug sensitivity score (Kuramochi) of 0, a drug sensitivity score (Ovsaho) of 0 and a drug sensitivity score (HOSE1C) of 0. For the same compound, the drug sensitivity score (COV318) was 0, the drug sensitivity score (OV90) was 0 and the drug sensitivity score (JHOS2) was 0.

— the supplement of paper PMC11616607
